Experimental data as given in the supplement of paper PMC10307832.

Legend:
Assay in all cases: relative viability (nuclei count vs DMSO), 5 days (fraction); higher = more cells survive
[1] = tested on: NCI-H2023
Method in brief: (§1)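 One day after seeding in 1536-well plates, lung cancer cell lines were dosed by pin tool. Dosing was either single-drug or a fixed anchor-drug dose plus five library-drug doses (not always all listed) in √10 steps. After 5 days, nuclei were stained in one fix-and-stain step and counted on 4× images, and relative viability is the nuclei count of treated wells over that of vehicle wells, given as the median of duplicate plates.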

[2] = tested on: NCI-H2085
Method in brief: as §1

[3] = tested on: NCI-H2170
Method in brief: as §1

[4] = tested on: NCI-H23
Method in brief: as §1

[5] = tested on: NCI-H2405
Method in brief: as §1

[6] = tested on: NCI-H322M
Method in brief: as §1

[7] = tested on: NCI-H441
Method in brief: as §1

[8] = tested on: NCI-H650
Method in brief: as §1

[9] = tested on: NCI-H727
Method in brief: as §1

[10] = tested on: RERF-LC-KJ
Method in brief: as §1

[11] = tested on: SK-MES-1
Method in brief: as §1

[12] = tested on: UMC-11
Method in brief: as §1

Compound `O=c1[nH]c2ccccc2n1C1CCN(CCCC(c2ccc(F)cc2)c2ccc(F)cc2)CC1` [Pimozide] + CC(=O)c1c(C)c2cnc(Nc3ccc(N4CCNCC4)cn3)nc2n(C2CCCC2)c1=O [Palbociclib] (partner 0.5 µM) has a relative viability ([1]; first compound 2.53 µM) of 0.333, a relative viability ([1]; first compound 8 µM) of 0.245 and a relative viability ([2]; first compound 0.08 µM) of 0.452. It also gave a relative viability ([2]; first compound 0.253 µM) of 0.483, a relative viability ([2]; first compound 0.8 µM) of 0.438 and a relative viability ([2]; first compound 2.53 µM) of 0.479. It also gave a relative viability ([2]; first compound 8 µM) of 0.422, a relative viability ([3]; first compound 0.08 µM) of 0.384 and a relative viability ([3]; first compound 0.253 µM) of 0.363. The relative viability ([3]; first compound 0.8 µM) was 0.365, the relative viability ([3]; first compound 2.53 µM) was 0.358 and the relative viability ([3]; first compound 8 µM) was 0.369. The relative viability ([4]; first compound 0.08 µM) was 0.454, the relative viability ([4]; first compound 0.253 µM) was 0.525 and the relative viability ([4]; first compound 0.8 µM) was 0.435. It also gave a relative viability ([4]; first compound 2.53 µM) of 0.445, a relative viability ([4]; first compound 8 µM) of 0.553 and a relative viability ([5]; first compound 0.08 µM) of 0.522. The relative viability ([5]; first compound 0.253 µM) was 0.516, the relative viability ([5]; first compound 0.8 µM) was 0.478 and the relative viability ([5]; first compound 2.53 µM) was 0.456. For the same compound, the relative viability ([5]; first compound 8 µM) was 0.33, the relative viability ([6]; first compound 0.08 µM) was 0.416 and the relative viability ([6]; first compound 0.253 µM) was 0.475. The relative viability ([6]; first compound 0.8 µM) was 0.483, the relative viability ([6]; first compound 2.53 µM) was 0.492 and the relative viability ([6]; first compound 8 µM) was 0.505. The relative viability ([7]; first compound 0.08 µM) was 0.273, the relative viability ([7]; first compound 0.253 µM) was 0.252 and the relative viability ([7]; first compound 0.8 µM) was 0.162. For the same compound, the relative viability ([7]; first compound 2.53 µM) was 0.218, the relative viability ([7]; first compound 8 µM) was 0.208 and the relative viability ([8]; first compound 0.08 µM) was 0.396. The relative viability ([8]; first compound 0.253 µM) was 0.313, the relative viability ([8]; first compound 0.8 µM) was 0.331 and the relative viability ([8]; first compound 2.53 µM) was 0.313. It also gave a relative viability ([8]; first compound 8 µM) of 0.291, a relative viability ([9]; first compound 0.08 µM) of 0.544 and a relative viability ([9]; first compound 0.253 µM) of 0.661. The relative viability ([9]; first compound 0.8 µM) was 0.696, the relative viability ([9]; first compound 2.53 µM) was 0.676 and the relative viability ([9]; first compound 8 µM) was 0.609. For the same compound, the relative viability ([10]; first compound 0.08 µM) was 1, the relative viability ([10]; first compound 0.253 µM) was 0.972 and the relative viability ([10]; first compound 0.8 µM) was 0.987. For the same compound, the relative viability ([10]; first compound 2.53 µM) was 0.778, the relative viability ([10]; first compound 8 µM) was 0.851 and the relative viability ([11]; first compound 0.08 µM) was 0.307. The relative viability ([11]; first compound 0.253 µM) was 0.298, the relative viability ([11]; first compound 0.8 µM) was 0.303 and the relative viability ([11]; first compound 2.53 µM) was 0.316. The relative viability ([11]; first compound 8 µM) was 0.314, the relative viability ([12]; first compound 0.08 µM) was 0.313 and the relative viability ([12]; first compound 0.253 µM) was 0.35. For the same compound, the relative viability ([12]; first compound 0.8 µM) was 0.315, the relative viability ([12]; first compound 2.53 µM) was 0.278 and the relative viability ([12]; first compound 8 µM) was 0.367.
